Data reported in patent US20130243847A1, “ACTIVATED CREATININE AND PRECURSORS THEREOF AS ANTIBACTERIAL AGENTS, COMPOSITIONS AND PRODUCTS CONTAINING SUCH AGENTS AND USE THEREOF” (BOARD OF REGENTS OF THE UNIVERSITY OF NEBRASKA, priority 2010, published 2013).

Legend:
Type in all cases: cell-based
S. aureus [1] = experiment: Selective growth on LBD, mixture of S. aureus and Rhodotorula sp. (Example 12, FIG. 11B); settings: 37° C., 36 hours
Description: (§1) Colonies of S. aureus and Rhodotorula sp. grown on LB agar supplemented with 1% dextrose (LBD) were suspended in PBS to 0.30 A580 nm. An equal volume of the two organisms was combined and the mixture streaked onto wells containing only LBD (None) or LBD supplemented with a precursor of antibacterially-activated CRN, CEE, and incubated at 37° C. for 36 hours.

Rhodotorula sp. = experiment: as above; settings: 200-400 mM CEE in LBD, 37° C., 36 hours
Description: as §1

S. aureus [2] = experiment: Disc diffusion assay, different carrier media (Example 2); settings: 28% by weight agent, approx. 50 μL
Description: For purposes of the experiments described below, test compositions were prepared by admixing antibacterially-activated creatinine (CRN) or a precursor of antibacterially-activated CRN, i.e., creatine ethyl ester (CEE), as required for the experiment at hand, with a weighed amount of a suitable carrier medium to give a final concentration of 28% by weight of the antibacterial agent, based on the total weight of the composition.
Antibacterial compositions were prepared following this procedure using a number of different aqueous and non-aqueous (anhydrous) carrier media, and evaluated for antibacterial activity in a standard disc diffusion assay. Thus, approximately 50 μL of each selected carrier containing 28% by weight of either a precursor of antibacterially-activated CRN, CEE, or antibacterially-activated CRN was added to a 6 mm disc and inverted onto a brain heart infusion agar plate that was previously spread with S. aureus at 10^5 organisms per mL. Plates were incubated at 37° C. overnight and the clear zones showing inhibition of bacterial growth were measured.

Bacillus subtilis = experiment: Disc diffusion assay, odor causing microorganisms (Example 11); settings: 25 mg anhydrous formulation (28% by weight) on filter disc
Description: (§2) Twenty-five milligrams of an anhydrous formulation of either antibacterially-activated CRN or a precursor of antibacterially-activated CRN, CEE, was prepared as described in Example 2, applied to a filter disc and tested for inhibition of bacterial growth of several odor causing microorganisms in a standard disc diffusion assay using Eridex™ (Cargill Inc. Cedar Rapids, Iowa) or creatine monohydrate containing no antibacterial agent as controls. […] The zones of inhibition for CRN or lack thereof for control test samples for B. linens and M. luteus are illustrated in FIGS. 10A and 10B respectively.

Micrococcus luteus = experiment: as above; settings: 25 mg anhydrous formulation (28% by weight) on filter disc
Description: as §2

Brevibacterium linens = experiment: as above; settings: 25 mg anhydrous formulation (28% by weight) on filter disc
Description: as §2

[3] = test system: Staphylococcus epidermidis; experiment: as above; settings: 25 mg anhydrous formulation (28% by weight) on filter disc
Description: as §2

Saccharomyces sp. = experiment: Selective growth on LBD agar, mixture of Micrococcus sp. and Saccharomyces sp. (Example 12, FIG. 11A)
Description: Colonies of Micrococcus sp. and Saccharomyces sp. grown on LB agar supplemented with 1% dextrose (LBD) were suspended in PBS to 0.30 A580 nm. An equal volume of the two organisms was combined and the mixture streaked onto LBD agar alone or LBD containing CEE and incubated at 37 C for 24 hours.

S. aureus [4] = experiment: Disc diffusion assay in hydrogel carrier (Example 8)
Description: Separate formulations of antibacterially-activated CRN and a precursor of antibacterially-activated CRN, CEE, were prepared by admixing the respective antibacterial agent with a hydrogel (Advanced Medical Solutions Ltd, UK.) in varying amounts to provide final concentrations of 1 M, 500 mM, 250 mM and 125 mM. Approximately 50 μL of each formulation at the four (4) different molar concentrations was added to a 6 mm disc and inverted onto a brain heart infusion agar plate that was previously spread with S. aureus suspended in PBS at 10^5 organisms per mL. Plates were incubated at 37° C. overnight and clear zones showing inhibition of bacterial growth were measured. The hydrogel carrier including no bacterial agent (0 mM) was used as a control.

[5] = test system: Pseudomonas aeruginosa laboratory strain 27853; experiment: Disc diffusion assay, CEE vs gentamicin; settings: P. aeruginosa laboratory strain 27853; 50 mg anhydrous topical cream with 28% by weight agent; gentamicin 10 μg disc
Description: (§3) This testing involved the use of 50 mg of an anhydrous topical cream containing the antibacterial agent of the invention in an amount of 28% by weight and 10 μg of gentamicin, impregnated into a standard commercially available disc (Remel, Lenoxa Kans.).

[6] = test system: Pseudomonas aeruginosa high level resistance (HLR); experiment: Disc diffusion assay, CEE vs gentamicin; settings: P. aeruginosa HLR; 50 mg anhydrous topical cream with 28% by weight agent; gentamicin 10 μg disc
Description: as §3

[7] = test system: Escherichia coli beta lactamase producer (ESBL); settings: E. coli ESBL; 50 mg anhydrous topical cream with 28% by weight agent; gentamicin 10 μg disc
Description: as §3

S. aureus [8] = experiment: Growth in Lederberg's broth with CEE at different concentrations (Example 3, FIG. 2A); settings: inoculum 10^4/mL, 37° C., absorbance over time
Description: The CEE precursor of antibacterially-activated CRN was diluted at different concentrations into Lederberg's broth (LB), which was then inoculated to 10^4/mL with S. aureus. The cultures were incubated in capped plastic tubes at 37° C. and aerated by tumbling using a tube rotating device.

S. aureus [9] = experiment: Disc diffusion assay of creatine esters (Example 6); settings: approx. 50 μL anhydrous polyethylene glycol carrier with 28% by weight agent
Description: Four (4) different creatine esters were prepared according to the method of U.S. Pat. No. 6,897,334 to Vennerstrom. The esters thus prepared were activated in the manner described herein to impart antibacterial activity thereto. Four (4) test formulations were prepared, each including approximately 50 μL of an anhydrous polyethylene glycol carrier containing 28% by weight of a different creatine ester. Each formulation was added to a 6 mm disc and inverted onto a brain heart infusion agar plate that was previously spread with S. aureus at 10^5 organisms per mL. Plates were incubated at 37° C. overnight and the clear zones showing inhibition of bacterial growth were measured.

## CCOC(=O)CN(C)C(=N)N [CEE, creatine ethyl ester]
S. aureus [1]; 100 mM CEE in LBD
  growth of Staphylococcus: retarded
S. aureus [1]; 200 mM CEE and greater in LBD
  growth of Staphylococcus: completely inhibited
Rhodotorula sp.
  growth of Rhodotorula: did not retard growth
S. aureus [2]; carrier hydrogel
  Zone of Inhibition: 20 mm
S. aureus [2]; carrier mineral oil
  Zone of Inhibition: 21 mm
S. aureus [2]; carrier pharmaceutical grade Lipoil (lecithin and isopropyl palmitate)
  Zone of Inhibition: 12 mm
S. aureus [2]; carrier pharmaceutical topical formulation (proprietary blend)
  Zone of Inhibition: 26 mm
S. aureus [2]; carrier polyethylene glycol 200
  Zone of Inhibition: 18 mm
S. aureus [2]; carrier polyethylene glycol 400
  Zone of Inhibition: 14 mm
S. aureus [2]; carrier red palm oil
  Zone of Inhibition: 15 mm
S. aureus [2]; carrier water/25% glycerol
  Zone of Inhibition: 15 mm
S. aureus [2]; carrier water/50% glycerol
  Zone of Inhibition: 15 mm
S. aureus [2]; carrier water
  Zone of Inhibition: 9 mm
S. aureus [2]; carrier white palm oil/corn oil (50% ea)
  Zone of Inhibition: 17 mm
S. aureus [2]; carrier white palm oil
  Zone of Inhibition: 12 mm
Bacillus subtilis
  ZONE OF INHIBITION: 20 mm
Micrococcus luteus
  ZONE OF INHIBITION: 22 mm
Brevibacterium linens
  ZONE OF INHIBITION: 40 mm
[3]
  ZONE OF INHIBITION: 27 mm
Saccharomyces sp.; 200 mM CEE in LBD agar, 37 C, 24 hours
  selectivity of media for yeast over Micrococcus sp.: selective for Saccharomyces
Saccharomyces sp.; 300-400 mM CEE in LBD agar (data not shown)
  growth of Saccharomyces: supported growth of Saccharomyces
S. aureus [4]; Staphylococcus aureus
  zone of inhibition at 125000 µM: 7 mm
  zone of inhibition at 250000 µM: 10 mm
  zone of inhibition at 500000 µM: 15 mm
S. aureus [4]; hydrogel, 1M, approx. 50 μL
  Zone of Inhibition: 20 mm
[5]
  Zone of Inhibition: 27 mm
[6]
  Zone of Inhibition: 25 mm
[7]
  Zone of Inhibition: 19 mm
S. aureus [8]
  concentration that inhibited growth of S. aureus: approximately 32 mM
S. aureus [9]
  Zone of Inhibition: 20 mm
